Assays:
wild oat = assay: Test B pre/postemergence wild oat; format: in vivo, Avena fatua
Procedure, shortened: (§1)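 Response is a visual 0-to-10 score relative to untreated plants, where 0 means no effect and 10 means complete control, taken twelve to sixteen days after application. Treatments went onto soil at planting and onto foliage of 1- to 4-leaf plants, using a surfactant-containing non-phytotoxic solvent.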

sugar beet = assay: Test B pre/postemergence sugar beet; format: in vivo, Beta vulgaris
Procedure, shortened: as §1

corn = assay: Test B pre/postemergence corn; format: in vivo, Zea mays
Procedure, shortened: as §1

duck salad = assay: Test B flood test duck salad; format: in vivo, Heteranthera limosa
Procedure, shortened: (§2)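 Flood test on plants grown to the 2-leaf stage; treated plants kept in greenhouse twelve to sixteen days, then visually rated against controls on a 0 (no effect) to 10 (complete control) scale.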

surinam grass = assay: Test B pre/postemergence surinam grass; format: in vivo, Brachiaria decumbens
Procedure, shortened: as §1

bamyardgrass = assay: Test B flood test barnyardgrass; format: in vivo, Echinochloa crus-galli
Procedure, shortened: as §2

rape = assay: Test B pre/postemergence rape; format: in vivo, Brassica napus
Procedure, shortened: as §1

rice = assay: Test B flood test rice; format: in vivo, Oryza sativa
Procedure, shortened: as §2

wheat = assay: Test B pre/postemergence wheat; format: in vivo, Triticum aestivum
Procedure, shortened: as §1

cocklebur = assay: Test B pre/postemergence cocklebur; format: in vivo, Xanthium strumarium
Procedure, shortened: as §1

velvetleaf = assay: Test B pre/postemergence velvetleaf; format: in vivo, Abutilon theophrasti
Procedure, shortened: as §1

morningglory = assay: Test B pre/postemergence morningglory; format: in vivo, Ipomoea hederacea
Procedure, shortened: as §1

soybean = assay: Test B pre/postemergence soybean; format: in vivo, Glycine max
Procedure, shortened: as §1

smallflower flatsedge = assay: Test B flood test smallflower flatsedge; format: in vivo, Cyperus difformis
Procedure, shortened: as §2

pigweed = assay: Test B pre/postemergence pigweed; format: in vivo, Amaranthus retroflexus
Procedure, shortened: as §1

giant foxtail = assay: Test B pre/postemergence giant foxtail; format: in vivo, Setaria faberii
Procedure, shortened: as §1

[1] = Postemergence, Rate 250 g/ha, scale 0 to 10
[2] = Postemergence, Rate 500 g/ha, scale of 0 to 10 where 0 is no effect and 10 is complete control
[3] = Preemergence, Rate 62 g/ha, scale of 0 to 10 where 0 is no effect and 10 is complete control
[4] = Preemergence, Rate 125 g/ha, scale of 0 to 10 where 0 is no effect and 10 is complete control
[5] = Preemergence, Rate 250 g/ha, scale 0 to 10, 0 is no effect, 10 is complete control
[6] = Preemergence, Rate 500 g/ha, scale 0 to 10, 0 is no effect, 10 is complete control
[7] = Rate 62 g/ha, Postemergence, scale 0 to 10 (0 no effect, 10 complete control)
[8] = Rate 125 g/ha, Postemergence, scale 0 to 10, 0 is no effect, 10 is complete control
[9] = Rate 62 g/ha, flood test species, Pre-emergence, visual evaluation after twelve to sixteen days
[10] = Rate 125 g/ha, under heading Pre-emergence, flood test species, visual evaluation after twelve to sixteen days
[11] = Rate 250 g/ha, Pre-emergence (flood test species), scale 0 to 10, 0 is no effect, 10 is complete control
[12] = Rate 500 g/ha, Pre-emergence, flood test species, scale 0 to 10 (0 no effect, 10 complete control)

COC(C)n1c(=O)on(C(=O)N(c2ccccc2)C(C)C)c1=O (stereo not shown) [Compound 441]
0: Wild oats plant response rating (wild oat; [1]) | Wild oats plant response rating (wild oat; [2]) | Plant response rating, Wild oats (wild oat; [3]) | Plant response rating, Wild oats (wild oat; [4]) | Wild oats plant response rating (wild oat; [5]) | Wild oats plant response rating (wild oat; [6]) | Wild oats plant response rating (wild oat; [7]) | Wild oats plant response rating (wild oat; [8]) | Sugarbeets plant response rating (sugar beet; [1]) | Sugarbeets plant response rating (sugar beet; [2]) | Plant response rating, Sugarbeets (sugar beet; [3]) | Plant response rating, Sugarbeets (sugar beet; [4]) | Sugarbeets plant response rating (sugar beet; [5]) | Sugarbeets plant response rating (sugar beet; [6]) | Sugarbeets plant response rating (sugar beet; [7]) | Sugarbeets plant response rating (sugar beet; [8]) | Corn plant response rating (corn; [1]) | Corn plant response rating (corn; [2]) | Plant response rating, Corn (corn; [3]) | Plant response rating, Corn (corn; [4]) | Corn plant response rating (corn; [5]) | Corn plant response rating (corn; [6]) | Corn plant response rating (corn; [7]) | Corn plant response rating (corn; [8]) | Plant response rating, Ducksalad (0 to 10 scale, 0 is no effect, 10 is complete control) (duck salad; [9]) | Ducksalad plant response rating (0 to 10 scale, 0 is no effect, 10 is complete control) (duck salad; [10]) | Ducksalad plant response rating (duck salad; [11]) | Ducksalad plant response rating (duck salad; [12]) | B. signalgrass plant response rating (surinam grass; Postemergence, Rate 250 g/ha, scale 0 to 10, 0 no effect, 10 complete control) | B. signalgrass plant response rating (surinam grass; [2]) | Plant response rating, B. signalgrass (surinam grass; [3]) | Plant response rating, B. signalgrass (surinam grass; [4]) | B. signalgrass plant response rating (surinam grass; [5]) | B. signalgrass plant response rating (surinam grass; [6]) | B. signalgrass plant response rating (surinam grass; [7]) | B. signalgrass plant response rating (surinam grass; [8]) | Plant response rating, Barnyardgrass (0 to 10 scale, 0 is no effect, 10 is complete control) (bamyardgrass; [9]) | Barnyardgrass plant response rating (0 to 10 scale, 0 is no effect, 10 is complete control) (bamyardgrass; [10]) | Barnyardgrass plant response rating (bamyardgrass; [11]) | Barnyardgrass plant response rating (bamyardgrass; [12]) | Rape plant response rating (rape; [1]) | Rape plant response rating (rape; [2]) | Plant response rating, Rape (rape; [3]) | Plant response rating, Rape (rape; [4]) | Rape plant response rating (rape; [5]) | Rape plant response rating (rape; [6]) | Rape plant response rating (rape; [7]) | Rape plant response rating (rape; [8]) | Plant response rating, Rice (0 to 10 scale, 0 is no effect, 10 is complete control) (rice; [9]) | Rice plant response rating (0 to 10 scale, 0 is no effect, 10 is complete control) (rice; [10]) | Rice plant response rating (rice; [11]) | Rice plant response rating (rice; [12]) | Wheat plant response rating (wheat; [1]) | Wheat plant response rating (wheat; [2]) | Plant response rating, Wheat (wheat; [3]) | Plant response rating, Wheat (wheat; [4]) | Wheat plant response rating (wheat; [5]) | Wheat plant response rating (wheat; [6]) | Wheat plant response rating (wheat; [7]) | Wheat plant response rating (wheat; [8]) | Cocklebur plant response rating (cocklebur; [1]) | Cocklebur plant response rating (cocklebur; [2]) | Plant response rating, Cocklebur (cocklebur; [3]) | Plant response rating, Cocklebur (cocklebur; [4]) | Cocklebur plant response rating (cocklebur; [5]) | Cocklebur plant response rating (cocklebur; [6]) | Cocklebur plant response rating (cocklebur; [7]) | Cocklebur plant response rating (cocklebur; [8]) | Velvetleaf plant response rating (velvetleaf; [1]) | Velvetleaf plant response rating (velvetleaf; [2]) | Plant response rating, Velvetleaf (velvetleaf; [3]) | Plant response rating, Velvetleaf (velvetleaf; [4]) | Velvetleaf plant response rating (velvetleaf; [5]) | Velvetleaf plant response rating (velvetleaf; [6]) | Velvetleaf plant response rating (velvetleaf; [7]) | Velvetleaf plant response rating (velvetleaf; [8]) | Morningglory plant response rating (morningglory; [1]) | Morningglory plant response rating (morningglory; [2]) | Plant response rating, Morningglory (morningglory; [3]) | Plant response rating, Morningglory (morningglory; [4]) | Morningglory plant response rating (morningglory; [5]) | Morningglory plant response rating (morningglory; [6]) | Morningglory plant response rating (morningglory; [7]) | Morningglory plant response rating (morningglory; [8]) | Soybean plant response rating (soybean; [1]) | Soybean plant response rating (soybean; [2]) | Plant response rating, Soybean (soybean; [3]) | Plant response rating, Soybean (soybean; [4]) | Soybean plant response rating (soybean; [5]) | Soybean plant response rating (soybean; [6]) | Soybean plant response rating (soybean; [7]) | Soybean plant response rating (soybean; [8]) | Plant response rating, S. Flatsedge (0 to 10 scale, 0 is no effect, 10 is complete control) (smallflower flatsedge; [9]) | S. Flatsedge plant response rating (0 to 10 scale, 0 is no effect, 10 is complete control) (smallflower flatsedge; [10]) | S. Flatsedge plant response rating (smallflower flatsedge; [11]) | S. Flatsedge plant response rating (smallflower flatsedge; [12]) | Redroot pigweed plant response rating (pigweed; [1]) | Redroot pigweed plant response rating (pigweed; [2]) | Plant response rating, Redroot pigweed (pigweed; [3]) | Plant response rating, Redroot pigweed (pigweed; [4]) | Redroot pigweed plant response rating (pigweed; [5]) | Redroot pigweed plant response rating (pigweed; [6]) | Redroot pigweed plant response rating (pigweed; [7]) | Redroot pigweed plant response rating (pigweed; [8]) | Giant foxtail plant response rating (giant foxtail; [1]) | Giant foxtail plant response rating (giant foxtail; [2]) | Plant response rating, Giant foxtail (giant foxtail; [3]) | Plant response rating, Giant foxtail (giant foxtail; [4]) | Giant foxtail plant response rating (giant foxtail; [5]) | Giant foxtail plant response rating (giant foxtail; [6]) | Giant foxtail plant response rating (giant foxtail; [7]) | Giant foxtail plant response rating (giant foxtail; [8])

From patent publication US6737383B1, “Herbicidal oxadiazolidines” (priority 1999, dated 2004)
